Data as given in paper PMC314469, “Protein Interaction Networks by Proteome Peptide Scanning” (PLoS Biology, 2004).

System: Myo5 SH3 domain
Assay: SPOT analysis of cellulose-bound peptides (WISE), Myo5 SH3 domain (Dataset S4)
Type: binding, Saccharomyces cerevisiae
Settings: for The normalized value in BLU units: Myo5 SH3 domain
[1] = SPOT analysis of cellulose-bound peptides probed with Myo5 SH3 domain, normalized value
[2] = SPOT analysis of membrane-bound peptides, normalized value (see methods)
[3] = SPOT analysis of membrane-synthesized peptides probed with Myo5 SH3 domain, normalized value
[4] = SPOT analysis of cellulose-bound 14-mer yeast proteome peptides, normalized value, mean where the peptide was synthesized more than once

EWPGLDPPYIPLDF
The normalized value in BLU units (SPOT analysis, Myo5 SH3) [1]: 62.7 BLU

ILEGKFEPVIPREW
The normalized value in BLU units [2]: 93.2 BLU

SKDKKTKPTPPPKP
The normalized value in BLU units [2]: 179.5 BLU

KVLIKTLPVLPEAR
The normalized value in BLU units (SPOT analysis, Myo5 SH3) [3]: 236.7 BLU

LAAHKTKPSIPPKK
The normalized value in BLU units [2]: 248.8 BLU

RPQWLSYPEQPLNS
The normalized value in BLU units (SPOT analysis, Myo5 SH3) [1]: 241.0 BLU

PPPPLPPPLFPSSS
The normalized value in BLU units (SPOT analysis, Myo5 SH3) [1]: 38483.6 BLU

EFQSKSSPVPPASE
The normalized value in BLU units (SPOT analysis, Myo5 SH3) [3]: 78.8 BLU

VEVDKKVPVLPMVA
The normalized value in BLU units (SPOT analysis, Myo5 SH3) [3]: 129.9 BLU

RLTNFEVPSLPTFH
The normalized value in BLU units (SPOT analysis, Myo5 SH3) [1]: 319.1 BLU

NKPKRKRPAPPKKK
The normalized value in BLU units (SPOT analysis, Myo5 SH3) [3]: 872.0 BLU

LLAEHNGPKLPHIP
The normalized value in BLU units [4]: 198.5 BLU

RLVNKLLPPHPFAD
The normalized value in BLU units (SPOT analysis, Myo5 SH3) [3]: 289.2 BLU

FQPQRTAPKPPISA
The normalized value in BLU units (SPOT analysis, Myo5 SH3) [3]: 88304.9 BLU

YFVKKIRPGNPLTK
The normalized value in BLU units [2]: 508.5 BLU

EPATLPLPGTPTLA
The normalized value in BLU units (SPOT analysis, Myo5 SH3) [1]: 61.8 BLU

DYRPKCIPCPPNGI
The normalized value in BLU units (SPOT analysis, Myo5 SH3) [3]: 154.3 BLU

RTPSKPDPMEPENT
The normalized value in BLU units [2]: 186.9 BLU

FEEDKMTPSTPVRS
The normalized value in BLU units (SPOT analysis, Myo5 SH3) [3]: 248.5 BLU

DILKKESPDVPLFD
The normalized value in BLU units (SPOT analysis, Myo5 SH3) [3]: 146.1 BLU

LPLPKLRPPRPTFA
The normalized value in BLU units (SPOT analysis, Myo5 SH3) [3]: 77883.2 BLU

PIGSRYNPNLPVTE
The normalized value in BLU units [2]: 187.4 BLU

TKKRKLGPKAPNPL
The normalized value in BLU units [2]: 693.8 BLU

PELAKNSPLAPIKK
The normalized value in BLU units [2]: 125.2 BLU

LPFPRKNPKLPENT
The normalized value in BLU units (SPOT analysis, Myo5 SH3) [3]: 147.2 BLU

DFPLYKSPAFPSSC
The normalized value in BLU units (SPOT analysis, Myo5 SH3) [1]: 172.8 BLU

TELLRIIPEMPKDL
The normalized value in BLU units [2]: 228.1 BLU

KYIIKTEPESPEED
The normalized value in BLU units [4]: 245.5 BLU

SLGERFMPMAPEVY
The normalized value in BLU units (SPOT analysis, Myo5 SH3) [3]: 139.8 BLU

ALKEMTHPIKPSAQ
The normalized value in BLU units (SPOT analysis, Myo5 SH3) [1]: 261.0 BLU

PKTGKPLPTQPSSS
The normalized value in BLU units (SPOT analysis, Myo5 SH3) [3]: 193.3 BLU

LNGLKSSPADPHLS
The normalized value in BLU units [2]: 152.9 BLU

NNSTRPIPAIPMDL
The normalized value in BLU units (SPOT analysis, Myo5 SH3) [3]: 247.2 BLU

LQNAKNDPLPPVIE
The normalized value in BLU units (SPOT analysis, Myo5 SH3) [3]: 58.8 BLU

PLTTLPPPRLPSIQ
The normalized value in BLU units [4]: 2788.2 BLU

RYCFKLLPPQPGSK
The normalized value in BLU units [2]: 189.7 BLU

LNRKKVTPQLPKVT
The normalized value in BLU units [2]: 499.8 BLU

EELARVTPLTPKEY
The normalized value in BLU units (SPOT analysis, Myo5 SH3) [3]: 181.5 BLU

IKYFKKFPKDPLAM
The normalized value in BLU units [2]: 237.4 BLU

ERDGRGVPLGPRNH
The normalized value in BLU units [4]: 121.3 BLU

KESKFGTPEKPLSD
The normalized value in BLU units (SPOT analysis, Myo5 SH3) [1]: 249.8 BLU

ELLCFLSPGKPSKG
The normalized value in BLU units (SPOT analysis, Myo5 SH3) [1]: 57.4 BLU

QLINRFMPHFPSSP
The normalized value in BLU units (SPOT analysis, Myo5 SH3) [3]: 518.2 BLU

KPAGRPIPPAPTHY
The normalized value in BLU units (SPOT analysis, Myo5 SH3) [3]: 189.4 BLU

SPLSWSGPLTPPTF
The normalized value in BLU units [4]: 168.0 BLU

IEEGHLDPEAPDKL
The normalized value in BLU units [4]: 84.8 BLU

MANILYYPQKPLGT
The normalized value in BLU units (SPOT analysis, Myo5 SH3) [1]: 152.5 BLU

VFYHRPAPKPPVTK
The normalized value in BLU units [2]: 9049.3 BLU

LSRSKPLPLTPNSK
The normalized value in BLU units (SPOT analysis, Myo5 SH3) [3]: 323.9 BLU

DGKLKHIPRRPYEI
The normalized value in BLU units [4]: 306.6 BLU

EGRCRLFPHCPLGR
The normalized value in BLU units [2]: 141.3 BLU

SELTFIAPTQPVST
The normalized value in BLU units (SPOT analysis, Myo5 SH3) [1]: 110.5 BLU

MAKSFADPRVPQPM
The normalized value in BLU units (SPOT analysis, Myo5 SH3) [1]: 172.2 BLU

SAENLIQPTAPIRD
The normalized value in BLU units [4]: 56.4 BLU

KQLMKNLPKIPLLN
The normalized value in BLU units [2]: 580.1 BLU

LQYHKKNPYSPLFS
The normalized value in BLU units [4]: 317.8 BLU

LDLSKYGPLPPSRA
The normalized value in BLU units (SPOT analysis, Myo5 SH3) [3]: 154.0 BLU

KSLQKFEPRYPKTA
The normalized value in BLU units [2]: 244.9 BLU

IYHCKKQPLVPIGC
The normalized value in BLU units [2]: 293.5 BLU

IEPDFIEPDAPLAA
The normalized value in BLU units (SPOT analysis, Myo5 SH3) [1]: 61.4 BLU

VPIIFEIPFNPIYK
The normalized value in BLU units [4]: 214.9 BLU

SPRHYNVPSSPIAP
The normalized value in BLU units (SPOT analysis, Myo5 SH3) [1]: 232.7 BLU

TLPPLSSPMNPNGH
The normalized value in BLU units (SPOT analysis, Myo5 SH3) [1]: 252.3 BLU

VHFYKSLPQGPAPA
The normalized value in BLU units (SPOT analysis, Myo5 SH3) [3]: 509.7 BLU

ETGVRYGPEFPLCT
The normalized value in BLU units (SPOT analysis, Myo5 SH3) [3]: 96.2 BLU

GNNSRNIPPPPPPP
The normalized value in BLU units (SPOT analysis, Myo5 SH3) [3]: 10334.3 BLU

LLPTKLIPSIPGGK
The normalized value in BLU units (SPOT analysis, Myo5 SH3) [3]: 172.0 BLU

AEVYYGPPTDPRKQ
The normalized value in BLU units (SPOT analysis, Myo5 SH3) [1]: 83.5 BLU

LSPAKARPSFPHND
The normalized value in BLU units (SPOT analysis, Myo5 SH3) [3]: 212.8 BLU

ELDIKQGPVRPFIV
The normalized value in BLU units (SPOT analysis, Myo5 SH3) [3]: 161.2 BLU

TEDGFVIPALPAAV
The normalized value in BLU units [4]: 290.4 BLU

APQPHLLPWLPPTD
The normalized value in BLU units [4]: 117.4 BLU

PPPPPPPPPVPA
The normalized value in BLU units (SPOT analysis, Myo5 SH3) [1]: 95729 BLU

KVQIKKVPTDPSSS
The normalized value in BLU units [2]: 191.2 BLU

RLLSKYRPSCPIIL
The normalized value in BLU units (SPOT analysis, Myo5 SH3) [3]: 336.6 BLU

PTANKYAPVSPTVQ
The normalized value in BLU units [2]: 191.4 BLU

PESAKCNPNSPRLK
The normalized value in BLU units [2]: 253.0 BLU

MKAYRANPPLPIDS
The normalized value in BLU units (SPOT analysis, Myo5 SH3) [3]: 123.1 BLU

QSINRSIPSAPYGA
The normalized value in BLU units [2]: 208.2 BLU

SSKIRPTPRKPSRM
The normalized value in BLU units (SPOT analysis, Myo5 SH3) [3]: 673.3 BLU

GEIMFPAPPLPIAN
The normalized value in BLU units (SPOT analysis, Myo5 SH3) [1]: 2774.8 BLU

TPSNMGSPGSPVNV
The normalized value in BLU units (SPOT analysis, Myo5 SH3) [1]: 156.2 BLU

KKIAKGDPKIPMQN
The normalized value in BLU units [2]: 720.5 BLU

FLTVYILPKNPFRV
The normalized value in BLU units [4]: 1470.4 BLU

LRISKPDPECPSKL
The normalized value in BLU units (SPOT analysis, Myo5 SH3) [3]: 246.3 BLU

LFGIRNNPFIPITG
The normalized value in BLU units [2]: 169.8 BLU

DFVTLHVPATPETE
The normalized value in BLU units [4]: 190.5 BLU

REASLDIPYKPIIA
The normalized value in BLU units [4]: 176.1 BLU

SANNYPFPQQPNGM
The normalized value in BLU units [4]: 79.6 BLU

ALDYLIPPPMPKNQ
The normalized value in BLU units (SPOT analysis, Myo5 SH3) [1]: 130.6 BLU

HLVRKVAPTKPMYC
The normalized value in BLU units (SPOT analysis, Myo5 SH3) [3]: 477.5 BLU

NETKLKFPTLPEVP
The normalized value in BLU units [4]: 254.7 BLU

ILPVLNIPLPPQEK
The normalized value in BLU units (SPOT analysis, Myo5 SH3) [1]: 21.6 BLU

DEPIRYAPGDPIEK
The normalized value in BLU units (SPOT analysis, Myo5 SH3) [3]: 106.5 BLU

EIKDRDQPAVPPSP
The normalized value in BLU units (SPOT analysis, Myo5 SH3) [3]: 108.1 BLU

MYGSKFIPFGPKCQ
The normalized value in BLU units (SPOT analysis, Myo5 SH3) [3]: 289.9 BLU

LDSMKNLPLNPSKK
The normalized value in BLU units [4]: 268.3 BLU

EKVFRGDPEHPAIS
The normalized value in BLU units [2]: 90.0 BLU

NDLVKRFPEQPPLR
The normalized value in BLU units [2]: 21447.2 BLU

YENCHSLPLDPQSP
The normalized value in BLU units [4]: 121.9 BLU

LLQSLRLPTTPTER
The normalized value in BLU units [4]: 124.6 BLU

AFHFWRPPIAPAEM
The normalized value in BLU units (SPOT analysis, Myo5 SH3) [1]: 1961.3 BLU

TLRSMIPPFTPQLD
The normalized value in BLU units [4]: 412.7 BLU

GKMVKWGPLRPFLS
The normalized value in BLU units (SPOT analysis, Myo5 SH3) [3]: 644.7 BLU

EETEMLAPKLPEEN
The normalized value in BLU units (SPOT analysis, Myo5 SH3) [1]: 81.6 BLU

NEFAKFAPDLPVLK
The normalized value in BLU units [2]: 135.1 BLU

ELEDFAFPDTPTIV
The normalized value in BLU units [4]: 254.9 BLU

GLIGMNDPPRPNVK
The normalized value in BLU units [4]: 115.5 BLU

PVRCRVLPATPRQI
The normalized value in BLU units (SPOT analysis, Myo5 SH3) [3]: 1474.0 BLU

NSGEKIYPQEPPIS
The normalized value in BLU units [4]: 111.7 BLU

DIPLKQVPENPMPT
The normalized value in BLU units [2]: 62.9 BLU

YLPHMSRPLGPDEV
The normalized value in BLU units (SPOT analysis, Myo5 SH3) [1]: 172.0 BLU

YSYLRLLPWWPSLA
The normalized value in BLU units (SPOT analysis, Myo5 SH3) [3]: 187.6 BLU

FHDPKFIPNKPYRQ
The normalized value in BLU units [4]: 299.7 BLU

DLKEFNGPEPPIKR
The normalized value in BLU units (SPOT analysis, Myo5 SH3) [1]: 125.6 BLU

DNELKDEPEPPNLI
The normalized value in BLU units (SPOT analysis, Myo5 SH3) [3]: 179.2 BLU

KTRNKPKPLWPQVK
The normalized value in BLU units (SPOT analysis, Myo5 SH3) [3]: 261.8 BLU

ALDNFTLPGTPGFP
The normalized value in BLU units [4]: 180.7 BLU

EFDEKLPPKKPAGP
The normalized value in BLU units [4]: 87.3 BLU
